In article PMC11613437, “Prioritization of Eleven-Nineteen-Leukemia Inhibitors as Orally Available Drug Candidates for Acute Myeloid Leukemia” (Journal of Medicinal Chemistry, 2024):

What was measured:
NLuc-ENL YEATS = biological target: T1, NLuc-ENL YEATS (Homo sapiens, UniProt Q03111); test: ENL-NanoBRET inhibitor competitive assay; format: cell-based; details: for IC50: HEK293T cells stably expressing NLuc-ENL YEATS, 1 μM Tracer 2, 2 h, mean ± SD, n = 3; for reduction in NanoBRET signal: concentrations up to 80 μM
T1 construct: DNA encoding the ENL YEATS domain (aa 1–148) was cloned into an NLuc containing plasmid; expressed in transfected cells
T1 sequence (Q03111 1-148): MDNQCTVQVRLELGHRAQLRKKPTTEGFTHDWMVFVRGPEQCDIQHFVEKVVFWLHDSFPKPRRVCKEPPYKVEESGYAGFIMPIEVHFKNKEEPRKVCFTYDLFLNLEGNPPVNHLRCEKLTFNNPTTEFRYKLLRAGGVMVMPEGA
Protocol: Approximately 1.8 × 10^4 HEK293T cells (100 μL) stably expressing NLuc-ENL YEATS were seeded into a white nonbinding 96-well assay plate and incubated overnight at 37 °C in a humidified 5% CO2 atmosphere. After removal of the medium, the cells were added with a tracer (with or without excess of unlabeled compound) in the Opti-MEM with 0.1% DMSO. After incubation at 37 °C for 2 h the assay plate was equilibrated at room temperature for 15 min. For BRET detection, the NanoGlo Substrate and the extracellular NanoLuc inhibitor (Promega, N2160) were diluted with Opti-MEM as described in protocol to afford detection solution. 50 μL of the detection solution was added per well and the plate was incubated for 3 min at room temperature. The donor emission was measured at 450 nm and the acceptor emission at 610 nm using a BioTek SYNERGY neo2 multimode reader. The BRET ratio was calculated according to the following formula: BRET ratio = [(acceptorsample/donorsample) – (acceptorno-tracer control/donorno-tracer control)] × 1000.
Sample procedures were followed for cell seeding as described in the previously described tracer affinity assay. After removal of the medium, the cells were added with a tracer in the medium (1.1 μM, 100 μL) and varied concentrations of a test compound in 0.1% DMSO (10 μL). The plate was thoroughly mixed on an orbital shaker for 15 s at 900 rpm. Then the cells were incubated at 37 °C, 5% CO2 for 2 h for BRET ratio detection as described previously.

[1] = Log D at pH 7.4 (chromatographic procedure); format: physicochemical; details: n-octanol / aqueous buffer pH 7.4, pH 7.4
Protocol: Log D at 7.4, which is a partition coefficient between n-octanol and aqueous buffer pH 7.4 of the compounds was measured on the chromatographic procedure whose condition was developed based on a published method.[35]

[2] = In vitro stability assay in human plasma; format: in vitro ADME; details: 37 °C; for Plasma % of parent compound remaining (after 2h incubation): 5 μM, mean ± SD, n = 3
Protocol: The in vitro stability analysis of a test compound was initiated by the addition of the test compound to 90 μL of prewarmed (37 °C) human plasma with a final concentration of 5 μM. All assays were performed in a plate shaker at 37 °C and conducted in triplicate. At 0, 5, 15, 30, 60, and 120 min, 400 μL acetonitrile (with the internal standard diclofenac as 10 μg/mL) was added to deproteinize the plasma and terminate the reaction, the remaining compound was then analyzed by HPLC-MS/MS.

[3] = In vitro metabolic stability assay in HLM; format: in vitro ADME, human; details: for half-life / half-life at 1 h: read-out: Liver Microsome t1/2; for parent compound remaining after 60 min incubation in HLM: in the presence of NADPH
Protocol: At 0, 5, 15, 30, 45, and 60 min, 200 μL acetonitrile (with the internal standard diclofenac as 10 μg/mL) was added to terminate the reaction, the remaining compound was analyzed by HPLC-MS/MS.

MOLM-13 cells = test: Cell toxicity assay (CCK-8), MOLM-13; format: cell-based; details: Homo sapiens, MOLM-13; 64 μM, 72-h treatment, Figure S8f; read-out: growth inhibition in MOLM-13 cells
Protocol: (§1) Approximately 1 × 10^4 JURKAT, MOLM-13, MV4-11 and HEK293T cells in RPMI 1640 (no phenol red) (100 μL) were added to a 96-well plate and treated with DMSO or a compound at indicated concentrations for 72 h or 8 days. Cell viability was measured using the CCK-8 kit (Abcam, ab228554) according to the manufacturer’s instructions.

ENL YEATS = biological target: T2, ENL YEATS (Homo sapiens, UniProt Q03111); test: AlphaScreen assay with biotinylated ENL-S1 peptide; details: inhibition of ENL YEATS binding to ENL-S1 peptide; mean ± SD, n = 3; read-out: Alpha IC50 (nM) for ENL YEATS
T2 construct: final concentrations of 100 nM His-ENL YEATS, 100 nM Biotin-ENL-S1
T2 sequence (Q03111 1-138 limits assumed): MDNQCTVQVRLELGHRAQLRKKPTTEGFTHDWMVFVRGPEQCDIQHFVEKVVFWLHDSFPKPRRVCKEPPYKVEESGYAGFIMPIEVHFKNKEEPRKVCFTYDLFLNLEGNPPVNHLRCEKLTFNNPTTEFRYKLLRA
Protocol: The AlphaScreen assay was carried out in 384-well plates. Manual assay setup was performed in a 40 μL reaction buffer (50 mM HEPES pH 7.4, 100 mM NaCl, 0.1% bovine serum albumin, and 0.05% CHAPS) with final concentrations of 100 nM His-ENL YEATS, 100 nM Biotin-ENL-S1, and 20 μg/mL of AlphaScreen donor and acceptor beads. The protein, peptide, and compounds were mixed and incubated for 1 h at room temperature and then incubated for 30 min in dark after adding the α beads. AlphaScreen-signals were detected by a multimode microplate reader (BioTeK Synergy Neo2) equipped with an Alpha-laser (PerkinElmer).

ENL YEATS domain = biological target: T3, ENL YEATS domain (Homo sapiens, UniProt Q03111); test: Biolayer interferometry (BLI); format: binding; details: biotinylated ENL YEATS on SSA biosensors, 1:1 model
T3 construct: Biotinylated-ENL YEATS was immobilized onto SSA biosensors; biotin (biotinylated)
T3 sequence (Q03111 1-138 limits assumed): T2 sequence (Q03111 1-138 limits assumed)
Protocol: Superstreptavidin biosensors were first incubated in an assay buffer (20 mM Tris, pH 7.8, 300 mM NaCl, 0.05% Tween 20, 0.1% DMSO) for 15 min. Sensors were coated with 40–60 μg/mL of biotinylated ENL for 15 min at room temperature. Inhibitors were serially diluted across a 96-well plate in a volume of 200 μL. Association of samples to either ENL- or uncoated reference sensors was measured over 300 s and dissociation over 300 s with baseline measurements (buffer only) for 300 s. All assays were run with continuous 1000 rpm shaking. Data were analyzed using the OctetRED data analysis software with reference subtraction in which reference uncoated sensors and reference samples were subtracted. Then, global kinetic fit was performed for all sonogram curves with a 1:1 model to get KD values.

[4] = Cell toxicity assay (CCK-8), MOLM-13; format: cell-based; details: human, MOLM-13 cells, 8 day treatment, n = 3; read-out: CC50 MOLM-13 (Cellular IC50, 8-days incubation)
Protocol: as §1

[5] = Cell toxicity assay (CCK-8), MV4-11; format: cell-based; details: human, MV4-11 cells, 8 day treatment, n = 3; read-out: CC50 MV4-11 (Cellular IC50, 8-days incubation)
Protocol: as §1

[6] = Cell toxicity assay (CCK-8), Jurkat; format: cell-based; details: human, Jurkat cells; 8 day treatment, n = 3; read-out: CC50 Jurkat (Cellular IC50, 8-days incubation)
Protocol: as §1

[7] = Cell toxicity assay (CCK-8), HEK293T; format: cell-based; details: human, HEK293T cells; 72 h (3-days) treatment, n = 3; read-out: CC50 HEK293T (Cellular IC50, 3-days incubation)
Protocol: as §1

[8] = human, human liver microsomes, pH 7.4, HLM 0.5 mg/mL, NADPH 1 mM, mean ± SD, n = 3, read-out: Liver Microsome CLint, pred
[9] = human, human liver microsomes, pH 7.4, HLM 0.5 mg/mL, NADPH 1 mM, mean ± SD, n = 3

| Compound | IC50 (NLuc-ENL YEATS) [nM] | chromatographic logD [1] | Plasma % of parent compound remaining (after 2h incubation) [2] [%] | degradation after 2 h incubation in human plasma [2] | CLint scaled at 1 h [3, 8] [mL/min/kg] | half-life at 1 h [3, 9] [h] | parent compound remaining after 60 min incubation in HLM [3] | other results |
| --- | --- | --- | --- | --- | --- | --- | --- | --- |
| CC(C)(C)C1CCN1Cc1ccc(CNC(=O)c2ccc3nncn3c2)cc1 (stereo not shown) [inhibitor 14] | > 20000 | 0.42 | 97.60 ± 0.74 |  |  |  |  | CLint scaled [3, 8]: 2.42 ± 0.14 mL/min/kg; half-life [3, 9]: 12 ± 0.741 h; inhibition at 64 µM (MOLM-13 cells): ~30% |
| CSc1ccc(CNC(=O)c2ccc3nncn3c2)cc1 [inhibitor 1] | 1260 | 1.19 | 84.81 ± 6.84 | approximately 15% | 22.2 ± 4.76 | 1.34 ± 0.292 | about 60% |  |
| CC(C)[C@@H]1CCN1Cc1ccc(CNC(=O)c2ccc3nncn3c2)cc1 [13 (S), (S)-N-(4-((2-isopropylazetidin-1-yl)methyl)benzyl)-[1,2,4]triazolo[4,3-a]pyridine-6-carboxamide] |  |  |  |  |  |  |  | IC50 (ENL YEATS): 970 nM |
| O=C(NCc1ccc(CN2CCOCC2)cc1)c1ccc2nncn2c1 [inhibitor 9] | > 80000 | -0.1 |  |  |  |  |  | reduction in NanoBRET signal (NLuc-ENL YEATS): minimal reductions in NanoBRET signal |
| CC(C)[C@H]1CCN1Cc1ccc(CNC(=O)c2ccc3nncn3c2)cc1 [13 (R), (R)-N-(4-((2-Isopropylazetidin-1-yl)methyl)benzyl)-[1,2,4]triazolo[4,3-a]pyridine-6-carboxamide] |  |  |  |  |  |  |  | IC50 (ENL YEATS): 2260 nM |
| CC1CCN1Cc1ccc(CNC(=O)c2ccc3nncn3c2)cc1 (stereo not shown) [inhibitor 12] | 1340 | -0.07 | 85.32 ± 3.24 | approximately 15% | 21.6 ± 1.89 | 1.35 ± 0.117 | about 60% |  |
| O=C(NCc1ccc(CN2CCCCC2)cc1)c1ccc2nncn2c1 [inhibitor 8] | > 80000 | 0.11 |  |  |  |  |  | reduction in NanoBRET signal (NLuc-ENL YEATS): minimal reductions in NanoBRET signal |
| O=C(NCc1ccc(CNc2ncc(F)cn2)cc1)c1ccc2nncn2c1 [inhibitor 24] |  | 0.96 | 88.42 ± 4.98 | approximately 15% | 9.95 | 2.92 ± 0.22 |  |  |
| CC(C)[C@@H]1CCN1Cc1cc2cnc(NC(=O)c3ccc4nncn4c3)cc2[nH]1 [SR-C-107 (S), (S)-N-(2-((2-Isopropylazetidin-1-yl)methyl)-1H-pyrrolo[3,2-c]pyridin-6-yl)-[1,2,4]triazolo[4,3-a]pyridine-6-carboxamide] | 5670 | 0.89 | 89.11 ± 6.07 |  | 10.9 | 2.76 ± 0.639 |  | IC50 (ENL YEATS): 1380 nM; half-life [3, 9]: 2.75 h |
| O=C(NCc1cccc(CN2CCC2)c1)c1ccc2nncn2c1 [inhibitor 15] | 3260 | 0.29 |  |  | 6.93 | 4.23 ± 0.603 | over 90% |  |
| CN(C)Cc1ccc(CNC(=O)c2ccc3nncn3c2)cc1 [inhibitor 7] | > 80000 | 0.28 |  |  |  |  |  |  |
| O=C(Nc1cc2[nH]c(CN3CCC3C3CC3)cc2cn1)c1ccc2nncn2c1 [YR-D-121] | 2360 | 0.13 | 82.54 ± 6.09 | approximately 15% | 3.51 | 8.29 ± 0.671 | over 90% | Kd (ENL YEATS domain): 1340 nM; IC50 at 8 days [4]: 6960 nM; IC50 at 8 days [5]: 14200 nM; IC50 at 8 days [6]: > 64000 nM; IC50 at 72 h [7]: > 64000 nM |
| O=C(NCc1ccc(CN2CCC2)cc1)c1ccc2nncn2c1 [inhibitor 11] |  | 0.17 |  |  |  |  |  | reduction in NanoBRET signal (NLuc-ENL YEATS): minimal reductions in NanoBRET signal |
